Data from patent US12195804B2, “Treatment of squamous cell carcinoma” (Board of Regents, The University of Texas System, priority 2018, dated 2025).

Assays:
HNSCC cell lines [1] = test: CellTiter-Glo cell viability assay; assay type: cell-based, human; conditions: for cell viability, NOTCH1MUT and NOTCH1WT cell lines: 0-200 nM
Procedure: Cell viability assay. […] A CellTiter-Glo luminescent cell viability assay (Promega, Madison, WI) was performed as described previously (Castel et al., 2016; Muellner et al., 2011). Inhibitory concentration (ICs) and area under the curve (AUC) values were calculated using the drexplorer R package with a best-fit dose-response model (Zumsteg et al., 2016). The combination indices were calculated using the Chou-Talalay method (Cal et al., 2017) in CalcuSyn (Biosoft, Cambridge, UK). We tested the reproducibility and robustness of the data generated using three quality control parameters as described previously (Bohnacker et al., 2017). These parameters were the concordance correlation coefficient, location shift, and maximum standard deviation between two biological replicates for three technical and two biological replicates. Based on heuristics from our previous screening studies in lung cancer (Bohnacker et al., 2017), the cut-offs for reproducibility were a concordance correlation coefficient greater than 0.8, a location shift less than 0.9, and a standard deviation less than 0.23 based on the normal mixture fit model. Experiments not satisfying these criteria were repeated. The replicate with the smallest experimental variation measured by the median of standard deviation was chosen as a representative of the replicates, and its IC values served as the final values for subsequent analysis.
Cell lines were classified as sensitive based on IC70 values less than the peak plasma concentration for each drug. To determine if cross-comparison of the PI3K/mTOR inhibitors as a class was feasible, their drug sensitivity patterns were compared with those of three cell cycle kinase inhibitors tested previously (Zhang et al., 2017). The PI3K/mTOR pathway inhibitors clustered separately from the cell cycle inhibitors (FIG. 12C).

HNSCC cell lines [2] = test: Apoptosis assays (Annexin V/propidium iodide, BrdU TUNEL, cleaved PARP/caspase 3); assay type: cell-based, human; conditions: alone, regardless of NOTCH1 status
Procedure: FIGS. 7A-7D: PI3K/mTOR signaling inhibition induces cell death in NOTCH1^MUT but not NOTCH1^WT head and neck squamous cell carcinoma (HNSCC) cell lines in vitro. FIG. 7A. Annexin V/propidium iodide or BrDU-terminal deoxynucleotidyl transferase (TdT) dUTP nick-end labeling (TUNEL) assays were used to measure apoptosis in HNSCC cells with the indicated NOTCH1 and PIK3CA mutations, which were treated with 50 nM GSK2126458 (GSK212) for 24 or 48 hours, respectively. Values are the means±standard deviations of three independent experiments. *p<0.05, unpaired two-tailed Student t-test. FIG. 7B. Western blotting of cleaved PARP (Cl-PARP) and cleaved caspase 3 (Cl-Caspase 3) levels in mutant and wild type cells after GSK212 treatment for 48 hours. FIG. 7C. NOTCH1^MUT and NOTCH1^WT HNSCC cells were plated sparsely and treated with GSK212 at the indicated concentrations for 48 hours. At 14-21 days after treatment, the cells were fixed and stained, images were captured using the GelCount Tumour Colony Counter, and colony numbers and the colorimetric intensity of the colonies were determined by measuring the optical density (OD) at 570 nm. Values are the means±standard deviations of three independent experiments. *p<0.001, unpaired two-tailed Student t-test. FIG. 7D. Three NOTCH1^WT lines (black text and bars) and three NOTCH1^MUT lines (red text and bars) were treated with increasing concentrations of GSK212 for 4 hours, and levels of PI3K/mTOR pathway proteins were measured by Western blot analysis.
Western blot analysis. Western blot analysis was performed as described previously (Ferrarotto et al., 2016). In brief, cells were lysed with ice-cold lysis buffer, and the lysates were centrifuged at 20,000×g for 10 minutes at 4° C. Cell samples containing equal amounts of protein were resolved using sodium dodecyl sulfate-polyacrylamide gel electrophoresis, transferred to nitrocellulose membranes, and immunoblotted with different primary antibodies. Protein expression was detected using a horseradish peroxidase-conjugated secondary antibody (Bio-Rad, Hercules, CA) and electrochemiluminescence reagent (Amersham Biosciences, Pittsburg, PA).
Apoptosis and cell cycle assays. To measure apoptosis, we performed terminal deoxynucleotidyl transferase dUTP nick end labeling (TUNEL) staining with an APO-BRDU Kit (BD Biosciences, San Jose, CA) and Annexin V/propidium iodide staining with an FITC Annexin V Apoptosis Detection Kit (BD Pharmingen, San Diego, CA) as described previously (Chandarlapaty et al., 2011). […] Data were acquired with a three-laser, 10-color Gallios flow cytometer (Beckman Coulter, Brea, CA) and analyzed using Kaluza software (Beckman Coulter, Brea, CA). […]

[3] = human, oral; cited from earlier work
pAKT, pS6 and p4EBP = conditions: therapeutic doses; cited from earlier work
[4] = administered orally; cited from earlier work
[5] = tested on: pAKT, pS6 and p4EBP1 in HNSCC cell lines; test: Western blot of PI3K pathway signaling after bimiralisib; assay type: cell-based, human; conditions: four HNSCC cell lines, 2 hours
Procedure: Cells were lysed and then resolved by SDS PAGE. Western blot analysis was performed using the indicated antibodies.

HNSCC cell lines [6] = test: BrdU TUNEL cell death, cell cycle and apoptosis markers after bimiralisib; assay type: cell-based, human; conditions: 5 μM
Source text: Apoptotic death in NOTCH1 mutants, but not wt cell lines, was confirmed with cleaved PARP and Caspase 3.

other protein kinases = conditions: cited from earlier work
[7] = tested on: UM22A, HN31 and FaDu HNSCC xenografts; test: Orthotopic tongue xenografts treated with bimiralisib; conditions: for tumor growth: 50 mg/kg PO once daily 28 days
HNSCC cell lines [8] = test: Sensitivity of 69 HNSCC cell lines to bimiralisib; assay type: cell-based, human
Source text: IC50 values were estimated from the best-fit dose-response model selected by calculating residual standard error using the R packages Dose Finding and drc (dose response curve) (Ritz and Streibig 2005, Bornkamp, Bretz et al. 2011). All experiments were done in duplicate and we compared the response between two experiments using concordance correlation coefficient (CCC). The CCC can be computed based on the scaled response as well as original unscaled response. The scaled version should be more relevant since this is actually the data used in IC estimation. […] To identify differentially expressed features between the comparative groups, we applied modified two-sample t-tests using the Limma package. The beta-uniform mixture (BUM) model, described by Pounds and Morris was used to control false discovery rate (FDR) (Pounds and Morris 2003).

EGFR^MUT lung cancers = conditions: EGFRMUT lung cancers; cited from earlier work

## COc1c(OCCCN2CCOCC2)ccc2c1N=C(NC(=O)c1cnc(N)nc1)N1CCN=C21 [BAY806946]
HNSCC cell lines [1]; 72 hours
  cell viability, NOTCH1MUT and NOTCH1WT cell lines: differential effects

## Nc1cc(C(F)(F)F)c(-c2cc(N3CCOCC3)nc(N3CCOCC3)n2)cn1 [BKM120]
HNSCC cell lines [1]; 59 HNSCC cell lines, 72 hours
  effectiveness across HNSCC cell lines (IC70): almost universally effective

## CNc1nc(-c2ccc3c(N)n[nH]c3c2)cc(N2C[C@@H](C(=O)NC3CCCCC3)CC[C@H]2C)n1 [GSK2334470]
HNSCC cell lines [2]
  apoptosis: little effect
HNSCC cell lines [1]; alone, regardless of NOTCH1 status
  cell viability: little effect

## NC1(c2ccc(-c3nc4ccn5c(=O)[nH]nc5c4cc3-c3ccccc3)cc2)CCC1 [MK-2206]
HNSCC cell lines [1]; 72 hours
  cell viability, NOTCH1MUT and NOTCH1WT cell lines: resistant

## Nc1cc(C(F)(F)F)c(-c2nc(N3CCOCC3)nc(N3CCOCC3)n2)cn1 [bimiralisib, 5-(4,6-Dimorpholino-1,3,5-triazin-2-yl)-4-(trifluoromethyl)pyridin-2-amine]
[3]
  Tmax: < 2 h
  terminal half-life: 51 h
pAKT, pS6 and p4EBP
  pAKT, pS6 and p4EBP in tumor tissue: marked decreases
[4]
  crossing of the blood-brain barrier: crosses the blood-brain barrier
[5]
  pAKT, pS6 and p4EBP1 (Western blot): decrease
[5]; listed as Bimiralisib
  pAKT, pS6 and p4EBP1 (Western blot): inhibits PI3K pathway signaling
HNSCC cell lines [6]; 48 hours, HNSCC lines with NOTCH1 mutations
  cell death by BrdU-TUNEL: significantly increased
HNSCC cell lines [6]; HNSCC NOTCH1wt lines
  cell cycle effect: arrested cell lines in G1/S
Other protein kinases
  inhibition of other protein kinases (KINOMEscan): does not significantly inhibit
[7]; FaDu (NOTCH1wt)
  tumor growth: not affected
[7]; UM22A and HN31 (NOTCH1 inactivating mutations)
  tumor growth: significant reduction of tumor growth
[7]; 50 mg/kg PO once daily, 28 days, mice
  body weight: without body weight loss
HNSCC cell lines [8]; Homo sapiens, 66 of 69 HNSCC cell lines
  IC50: < 3 µM
HNSCC cell lines [8]; NOTCH1 Mutant cell lines
  number of cell lines Resistant: 3
  number of cell lines Sensitive: 12
HNSCC cell lines [8]; NOTCH1 WT cell lines
  number of cell lines Resistant: 20
  number of cell lines Sensitive: 18

## C=CC(=O)Nc1cc(Nc2nccc(-c3cn(C)c4ccccc34)n2)c(OC)cc1N(C)CCN(C)C [osimertinib]
EGFR^MUT lung cancers
  response rate: about 80%

## CO[C@H]1C[C@@H]2CC[C@@H](C)[C@@](O)(O2)C(=O)C(=O)N2CCCC[C@H]2C(=O)O[C@H]([C@H](C)C[C@@H]2CC[C@@H](OP(C)(C)=O)[C@H](OC)C2)CC(=O)[C@H](C)/C=C(\C)[C@@H](O)[C@@H](OC)C(=O)[C@H](C)C[C@H](C)/C=C/C=C/C=C/1C [ridaforolimus]
HNSCC cell lines [1]; 72 hours
  cell viability, NOTCH1MUT and NOTCH1WT cell lines: resistant
